# Assay results published in the supplement of paper PMC10307832.
# Legend:
# Assay in all cases: relative viability (nuclei count vs DMSO), 5 days (fraction); higher = more cells survive
# Salubrinal + Alpelisib = compound: O=C(/C=C/c1ccccc1)NC(NC(=S)Nc1cccc2cccnc12)C(Cl)(Cl)Cl [Salubrinal] + Cc1nc(NC(=O)N2CCC[C@H]2C(N)=O)sc1-c1ccnc(C(C)(C)C(F)(F)F)c1 [Alpelisib] (partner 2 µM)
# How it was run: (§1)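 Cells from lung cancer lines were seeded into 1536-well plates and, one day later, dosed by pin tool. Treatments were either a single drug or a fixed dose of an anchor drug with five library-drug doses (not always all listed) in √10 steps. After 5 days, nuclei were stained in a one-step fixation (final 0.05% Triton X-100, 1% formaldehyde, 1 ug/ml Hoechst) and counted on 4× images, and relative viability is the treated-to-vehicle nuclei ratio, as the median of duplicate plates.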
# [1] = compound: Cc1ccc2nc(NCCN)c3ncc(C)n3c2c1 + CC(=O)c1c(C)c2cnc(Nc3ccc(N4CCNCC4)cn3)nc2n(C2CCCC2)c1=O [Palbociclib] (partner 0.5 µM)
# How it was run: as §1
# Salubrinal + Decitabine = compound: O=C(/C=C/c1ccccc1)NC(NC(=S)Nc1cccc2cccnc12)C(Cl)(Cl)Cl [Salubrinal] + Nc1ncn([C@H]2C[C@H](O)[C@@H](CO)O2)c(=O)n1 [Decitabine] (partner 2 µM)
# How it was run: as §1
# [2] = compound: Cc1ccc2nc(NCCN)c3ncc(C)n3c2c1 + Nc1nc2[nH]cc(CCc3ccc(C(=O)N[C@@H](CCC(=O)O)C(=O)O)cc3)c2c(=O)[nH]1 [Pemetrexed] (partner 0.2 µM)
# How it was run: as §1
Cell Line,relative viability (Salubrinal + Alpelisib; first compound 0.08 µM),relative viability (Salubrinal + Alpelisib; first compound 0.253 µM),relative viability (Salubrinal + Alpelisib; first compound 0.8 µM),relative viability (Salubrinal + Alpelisib; first compound 2.53 µM),relative viability (Salubrinal + Alpelisib; first compound 8 µM),relative viability ([1]; first compound 0.04 µM),relative viability ([1]; first compound 0.1265 µM),relative viability ([1]; first compound 0.4 µM),relative viability ([1]; first compound 1.265 µM),relative viability ([1]; first compound 4 µM),relative viability (Salubrinal + Decitabine; first compound 0.08 µM),relative viability (Salubrinal + Decitabine; first compound 0.8 µM),relative viability (Salubrinal + Decitabine; first compound 2.53 µM),relative viability (Salubrinal + Decitabine; first compound 8 µM),relative viability ([2]; first compound 0.04 µM),relative viability ([2]; first compound 0.1265 µM),relative viability ([2]; first compound 0.4 µM),relative viability ([2]; first compound 1.265 µM),relative viability ([2]; first compound 4 µM),relative viability (Salubrinal + Decitabine; first compound 0.253 µM)
HCC-366,0.609,0.361,0.426,0.472,0.326,0.409,0.392,0.343,0.382,0.352,0.371,0.374,0.392,0.301,0.157,0.202,0.146,0.126,0.165,
BEN,1.23,0.82,1.3,1,1.03,0.506,0.484,0.479,0.465,0.48,0.711,0.865,0.741,0.766,0.978,0.894,0.817,0.712,0.801,0.726
NCI-H23,0.839,0.717,0.763,0.685,0.976,0.501,0.562,0.437,0.469,0.309,0.315,0.304,0.312,0.291,0.666,0.691,0.741,0.641,0.581,0.316
NCI-H1395,1.19,1.39,0.999,1.08,0.911,0.647,0.613,0.597,0.546,0.557,0.792,0.707,0.67,0.692,0.881,0.995,0.855,0.697,0.56,0.686
201T,1.07,0.999,1.05,1.02,1.01,0.396,0.367,0.33,0.363,0.323,0.918,0.859,0.84,0.83,0.372,0.321,0.323,0.276,0.343,0.815
NCI-H1793,1,0.722,0.837,0.798,0.617,0.303,0.328,0.283,0.312,0.318,0.625,0.521,0.467,0.608,0.951,0.85,0.846,0.714,0.766,0.494
NCI-H460,0.615,0.358,0.433,0.419,0.451,0.114,0.152,0.147,0.204,0.0833,0.517,0.475,0.379,0.444,0.0612,0.0659,0.065,0.0654,0.0753,0.461
NCI-H661,0.572,0.864,0.937,0.845,0.686,0.423,0.452,0.407,0.439,0.477,0.602,0.57,0.474,0.536,0.909,0.949,0.958,0.891,0.868,0.474
HCC-15,0.988,0.789,0.994,0.94,0.945,0.789,0.773,0.616,0.708,0.485,0.723,0.773,0.762,0.61,0.233,0.203,0.223,0.252,0.236,0.555
LCLC-103H,0.953,0.917,1.05,1.02,0.932,0.463,0.462,0.428,0.497,0.488,0.772,0.718,0.782,0.608,0.503,0.51,0.5,0.467,0.494,0.696
NCI-H441,0.832,0.61,1.01,0.709,0.645,0.251,0.271,0.181,0.26,0.248,0.235,0.265,0.269,0.222,0.301,0.288,0.269,0.268,0.261,0.243
EPLC-272H,1.01,0.798,1.07,0.996,0.787,0.337,0.348,0.315,0.257,0.249,0.403,0.369,0.405,0.362,0.278,0.358,0.488,0.281,0.414,0.373
